Results reported in patent US20240116913A1, “A CRYSTALLINE FORM OF (4-METHYL-2-[1,2,3]TRIAZOL-2-YL-PHENYL)-[(R)-3-(3-[1,2,3]TRIAZOL-2-YL-BENZYL)-MORPHOLIN-4-YL]-METHANONE” (Idorsia Pharmaceuticals Ltd, priority 2021, published 2024).

Columns and labels:
[1] = Moisture sorption at 25° C. (dynamic vapor sorption, DVS); type: physicochemical; details: for Moisture picked up (mass change): range 0 to 95% RH at 25° C.
Protocol: Moisture sorption isotherm was collected on a multi sample instrument SPS-100n (Projekt Messtechnik, Ulm, Germany) operated in stepping mode at 25° C. The sample was allowed to equilibrate at 40% RH before starting a pre-defined humidity program 40-0-95-0-95-40% RH, steps of 5% RH and with a maximal equilibration time of 24 hours per step were applied. About 20 to 30 mg of each sample was used. The hygroscopic classification as disclosed herein is done according to the European Pharmacopeia Technical Guide (1999, page 86), that is, a material is classified as “not hygroscopic or “non-hygroscopic” when the increase in mass, as measured by the DVS method disclosed herein, is less than 0.2%; a material is classified as slightly hygroscopic, when the increase in mass is less than 2% and equal to or greater than 0.2% mass/mass; finally, a material is classified as hygroscopic, when the increase in mass is less than 15% and equal to or greater than 2% mass/mass. The mass change between 40% relative humidity and 80% relative humidity in the first adsorption scan was considered. Data shown are from the first upwards cycle.

[2] = Bulk density and tapped density (Densi-tap tapping device); type: physicochemical; details: for Tapped density: after 3750 tappings; for Hausner ratio (HR) (ratio between tapped and bulk density): calculated from measured tapped and bulk densities; for Type of powder flow (flowability class from HR): classified from Hausner ratio; for Bulk density: powder without any processing, 10 mL glass cylinder
Protocol: Bulk and tapped density were measured on a Densi-tap tapping device from Matec using a 10 mL glass cylinder and using powder without any processing. For tapped density the value is reported after 3750 tappings.

[3] = listed as crystalline form 1 of ACT-539313

SMILES	Hygroscopic classification according to Ph. Eur. ([1]; DVS at 25° C., mass change between 40% and 80% RH, first adsorption scan)	Moisture picked up (mass change) [1]	Tapped density ([2]; listed as amorphous ACT-539313)	Hausner ratio (HR) (ratio between tapped and bulk density) ([2]; listed as amorphous material)	Type of powder flow (flowability class from HR) ([2]; listed as amorphous material)	Bulk density ([2]; listed as amorphous ACT-539313)	Hygroscopicity compared between solid forms ([1]; cf. FIGS. 4 and 5, Tables 1 and 3)	Tapped density [2]	Hausner ratio (HR) (ratio between tapped and bulk density) [2, 3]	Type of powder flow (flowability class from HR) [2, 3]	Bulk density [2]
Cc1ccc(C(=O)N2CCOC[C@H]2Cc2cccc(-n3nccn3)c2)c(-n2nccn2)c1 [ACT-539313 in amorphous state, (4-Methyl-2-[1,2,3]triazol-2-yl-phenyl)-[(R)-3-(3-[1,2,3]triazol-2-yl-benzyl)-morpholin-4-yl]-methanone]	slightly hygroscopic according to (classified as slightly hygroscopic, when the increase in mass is less than 2% and equal to or greater than 0.2% mass/mass)	~2.6% of moisture in the range 0	0.13 g/mL	2.26	very, very poor (“very, very poor” (HR>1.60))	0.06 g/mL					
Cc1ccc(C(=O)N2CCOC[C@H]2Cc2cccc(-n3nccn3)c2)c(-n2nccn2)c1 [ACT-539313 in crystalline form 1, (4-Methyl-2-[1,2,3]triazol-2-yl-phenyl)-[(R)-3-(3-[1,2,3]triazol-2-yl-benzyl)-morpholin-4-yl]-methanone]		Material picks up about 0.1%					less hygroscopic than the amorphous ACT-539313	0.46 g/mL	1.47	very poor (“very poor” (HR from 1.46 to 1.59))	0.31 g/mL
